The text below walks through data of PubChem BioAssay AID248 (DTP/NCI, 2004).

The structures appear in SMILES notation. Several values for one entry are separate records, joined by “and”; a condition that tells them apart may be missing. Identical values can stand only once. Toxic doses and inconclusive results are not listed.

For this test, the system named is L1210 leukemia ip in BDF1 mice, survival T/C. The experiment in a line: NCI In Vivo Anticancer Drug Screen. Data for tumor model L1210 Leukemia (intraperitoneal) in B6D2F1 (BDF1) mice. To be noted: endpoint: mean survival time, higher = longer survival. In outline:
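Read-out is survival time, reported as the treated-group measurement over the vehicle-control measurement.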

Where [1] appears, read: dose: 100.0 mg/kg/injection, schedule: Q01DX001 (ip), vehicle: saline.
The mark [2] stands for this setting: dose: 200.0 mg/kg/injection, schedule: Q01DX001 (ip), vehicle: saline.
[3] abbreviates: dose: 100.0 mg/kg/injection, schedule: Q01DX009 (ip), vehicle: Klucel (hydroxypropylcellulose) (HPC).
Setting [4] is: dose: 200.0 mg/kg/injection, schedule: Q01DX009 (ip), vehicle: Klucel (hydroxypropylcellulose) (HPC).
[5] abbreviates: dose: 400.0 mg/kg/injection, schedule: Q01DX009 (ip), vehicle: Klucel (hydroxypropylcellulose) (HPC).
[6] abbreviates: dose: 100.0 mg/kg/injection, schedule: Q01DX001 (ip), vehicle: saline with Tween-80.
Where [7] appears, read: dose: 200.0 mg/kg/injection, schedule: Q01DX001 (ip), vehicle: saline with Tween-80.
[8] abbreviates: dose: 400.0 mg/kg/injection, schedule: Q01DX001 (ip), vehicle: saline with Tween-80.
Setting [9] is: dose: 75.0 mg/kg/injection, schedule: Q01DX001 (ip), vehicle: carboxymethylcellulose (CMC).
The mark [10] stands for this setting: dose: 150.0 mg/kg/injection, schedule: Q01DX001 (ip), vehicle: carboxymethylcellulose (CMC).
[11] abbreviates: dose: 100.0 mg/kg/injection, schedule: Q04DX003 (ip), vehicle: saline with Tween-80.
Setting [12] is: dose: 200.0 mg/kg/injection, schedule: Q04DX003 (ip), vehicle: saline with Tween-80.

In the case of `N=C(N)SCCCCSC(=N)N`, the T/C is, setting by setting: (dose: 25.0 mg/kg/injection, schedule: Q01DX009 (ip), vehicle: saline) 92 % of control; (dose: 50.0 mg/kg/injection, schedule: Q01DX009 (ip), vehicle: saline) 97 % of control; (dose: 100.0 mg/kg/injection, schedule: Q01DX009 (ip), vehicle: saline) 94 % of control and 106 % of control.
`CCCCCCOC(=O)Nc1ccc(S(=O)(=O)NC2CCCCC2)cc1`: the T/C is 94 % of control under setting [1]; 90 % of control under setting [2]; 95 % of control (dose: 400.0 mg/kg/injection, schedule: Q01DX001 (ip), vehicle: saline).
As to `Nc1ccccc1S(=O)(=O)Nc1ccccc1`, the T/C is, setting by setting: under setting [3], 98 % of control; (dose: 100.0 mg/kg/injection, schedule: Q04DX003 (ip), vehicle: Klucel (hydroxypropylcellulose) (HPC)) 92 % of control; under setting [4], 95 % of control; (dose: 200.0 mg/kg/injection, schedule: Q04DX003 (ip), vehicle: Klucel (hydroxypropylcellulose) (HPC)) 97 % of control; under setting [5], 87 % of control; (dose: 400.0 mg/kg/injection, schedule: Q04DX003 (ip), vehicle: Klucel (hydroxypropylcellulose) (HPC)) 100 % of control.
Consider `CCCCCCCCCCC(S(=O)(=O)CC)S(=O)(=O)CC`, for which the T/C (dose: 100.0 mg/kg/injection, schedule: Q01DX001 (ip), vehicle: Klucel (hydroxypropylcellulose) (HPC)) is 97 % of control and the T/C (dose: 200.0 mg/kg/injection, schedule: Q01DX001 (ip), vehicle: Klucel (hydroxypropylcellulose) (HPC)) was 94 % of control.
As to `Nc1nc2c(c(=O)[nH]1)N(CC(=O)O)C(CNc1ccc(C(=O)NC(CCC(=O)O)C(=O)O)cc1)CN2` (stereo not given), the T/C (dose: 100.0 mg/kg/injection, schedule: Q01DX001 (ip), vehicle: alkali diluted with saline) is 94 % of control; the T/C (dose: 200.0 mg/kg/injection, schedule: Q01DX001 (ip), vehicle: alkali diluted with saline) was 93 % of control; the T/C (dose: 400.0 mg/kg/injection, schedule: Q01DX001 (ip), vehicle: alkali diluted with saline) was 96 % of control.
In the case of `CC1=C(C)Cc2c(-c3ccccc3)oc(-c3ccccc3)c2C1`, the T/C under setting [6] was 94 % of control, the T/C under setting [7] is 90 % of control and the T/C under setting [8] is 90 % of control.
As for `CCC1(O)CC2CN(CCc3c([nH]c4ccccc34)C(C(=O)OC)(c3cc4c(cc3OC)N(C)C3C(O)(C(=O)NCCO)C(O)C5(CC)C=CCN6CCC43C65)C2)C1` (stereo not given), the T/C reads like this: (dose: 0.16 mg/kg/injection, schedule: Q01DX009 (ip), vehicle: saline) 123 % of control; (dose: 0.39 mg/kg/injection, schedule: Q04DX003 (ip), vehicle: saline) 158 % of control; (dose: 1.2 mg/kg/injection, schedule: Q01DX009 (ip), vehicle: saline) 116 % of control; (dose: 389.0 micrograms/kg/injection, schedule: Q04DX003 (ip), vehicle: saline) 118 % of control; (dose: 648.0 micrograms/kg/injection, schedule: Q04DX003 (ip), vehicle: saline) 106 % of control; (dose: 1080.0 micrograms/kg/injection, schedule: Q04DX003 (ip), vehicle: saline) 123 % of control. Also, the T/C (dose: 5000.0 micrograms/kg/injection, schedule: Q04DX003 (ip), vehicle: saline) is 115 % of control.
Consider `CCOc1cc(/C=N/NC(=O)COCC(=O)N/N=C/c2ccc(O)c(OCC)c2)ccc1O`, for which the T/C is 88 % of control under setting [3], 92 % of control under setting [4] and 97 % of control under setting [5].
Regarding `O=S(Cc1ccccc1)C(Cl)(Cl)c1ccccc1` (stereo not given), the T/C is 96 % of control (dose: 100.0 mg/kg/injection, schedule: Q01DX001 (ip), vehicle: other); 98 % of control (dose: 200.0 mg/kg/injection, schedule: Q01DX001 (ip), vehicle: other); 102 % of control (dose: 400.0 mg/kg/injection, schedule: Q01DX001 (ip), vehicle: other).
Take `CC(C)=NNC(=O)Nc1cccc(C)c1C`: the T/C is 90 % of control under setting [3] and 91 % of control under setting [4].
Regarding `O=C(c1cccs1)c1cscc1C(=O)c1cccs1`, the T/C is, setting by setting: under setting [6], 95 % of control; under setting [7], 95 % of control; under setting [8], 92 % of control.
Regarding `Cc1nnc(Cl)c2ccccc12`, under setting [1], the T/C was 95 % of control.
As to `CCc1ccc(N2C(N)=NC(N)=NC2(C)C)cc1`, the T/C reads like this: (dose: 25.0 mg/kg/injection, schedule: Q01DX001 (ip), vehicle: saline) 104 % of control; (dose: 50.0 mg/kg/injection, schedule: Q01DX001 (ip), vehicle: saline) 100 % of control; under setting [1], 105 % of control and 110 % of control.
For `CCOc1ccc(/C=N/NC(=O)Cc2cccc3ccccc23)cc1OC`, the T/C was 95 % of control under setting [3], 98 % of control under setting [4] and 97 % of control under setting [5].
Turning to `NNC(=S)Nc1cccc2ccccc12`, the T/C under setting [9] is 93 % of control and the T/C under setting [10] was 93 % of control.
In the case of `CC(=O)n1c(O)c(N=Nc2ccc([N+](=O)[O-])cc2[N+](=O)[O-])c2cc(Br)ccc21`, the T/C by setting is: (dose: 100.0 mg/kg/injection, schedule: Q04DX002 (ip), vehicle: Klucel (hydroxypropylcellulose) (HPC)) 92 % of control; (dose: 200.0 mg/kg/injection, schedule: Q04DX002 (ip), vehicle: Klucel (hydroxypropylcellulose) (HPC)) 92 % of control; (dose: 400.0 mg/kg/injection, schedule: Q04DX002 (ip), vehicle: Klucel (hydroxypropylcellulose) (HPC)) 92 % of control.
Regarding `COC1C=COC2(C)Oc3c(C)c(O)c4c(c3C2=O)/C(=N/C2CCC(O)OC2C)C=C(NC(=O)/C(C)=C\C(=O)C2CC2C(O)C(C)C(O)C(C)C(OC(C)=O)C1C)C4=O` (stereo not given), the T/C runs as follows: (dose: 50.0 mg/kg/injection, schedule: Q04DX002 (ip), vehicle: saline with Tween-80) 95 % of control; (dose: 100.0 mg/kg/injection, schedule: Q04DX002 (ip), vehicle: saline with Tween-80) 95 % of control.
On to `Cc1cc(C)c(CN)cc1C`, for which the T/C (dose: 5.0 mg/kg/injection, schedule: Q04DX003 (ip), vehicle: saline with Tween-80) was 95 % of control; the T/C (dose: 10.0 mg/kg/injection, schedule: Q04DX003 (ip), vehicle: saline with Tween-80) was 95 % of control; the T/C (dose: 20.0 mg/kg/injection, schedule: Q04DX003 (ip), vehicle: saline with Tween-80) was 95 % of control.
For `CCNC(=O)Nc1ncn[nH]1`, the T/C was 102 % of control under setting [9] and 98 % of control under setting [10].
Consider `C/C(=N\O)C1(C)CC=CCC1CO` (stereo not given), for which the T/C reads like this: under setting [11], 101 % of control; under setting [12], 101 % of control; (dose: 400.0 mg/kg/injection, schedule: Q04DX003 (ip), vehicle: saline with Tween-80) 96 % of control.
Consider `Cc1cc2oc(=O)c3c(c2c(O)c1CN1CCN(C)CC1)CCCC3`, for which the T/C under setting [1] is 95 % of control and the T/C under setting [2] is 92 % of control.
Consider `COC(=O)c1cc(C)cc(O)c1C`, for which the T/C reads like this: (dose: 100.0 mg/kg/injection, schedule: Q01DX001 (ip), vehicle: carboxymethylcellulose (CMC)) 104 % of control; (dose: 200.0 mg/kg/injection, schedule: Q01DX001 (ip), vehicle: carboxymethylcellulose (CMC)) 98 % of control; (dose: 400.0 mg/kg/injection, schedule: Q01DX001 (ip), vehicle: carboxymethylcellulose (CMC)) 104 % of control.
As to `CC(=O)OCC(OC(C)=O)C(OC(C)=O)C(C#N)OC(C)=O` (stereo not given), the T/C was 95 % of control (dose: 12.5 mg/kg/injection, schedule: Q01DX009 (ip), vehicle: Klucel (hydroxypropylcellulose) (HPC)); 102 % of control (dose: 12.5 mg/kg/injection, schedule: Q04DX003 (ip), vehicle: Klucel (hydroxypropylcellulose) (HPC)); 95 % of control (dose: 25.0 mg/kg/injection, schedule: Q01DX009 (ip), vehicle: Klucel (hydroxypropylcellulose) (HPC)); 96 % of control (dose: 25.0 mg/kg/injection, schedule: Q04DX003 (ip), vehicle: Klucel (hydroxypropylcellulose) (HPC)); 102 % of control (dose: 50.0 mg/kg/injection, schedule: Q01DX009 (ip), vehicle: Klucel (hydroxypropylcellulose) (HPC)); 102 % of control (dose: 50.0 mg/kg/injection, schedule: Q04DX003 (ip), vehicle: Klucel (hydroxypropylcellulose) (HPC)). Moreover, the T/C reads like this: under setting [11], 102 % of control; under setting [12], 102 % of control.
Regarding `CC12CCCCC1C=CC(=O)C2` (stereo not given), the T/C (dose: 75.0 mg/kg/injection, schedule: Q01DX001 (ip), vehicle: other) was 89 % of control and the T/C (dose: 150.0 mg/kg/injection, schedule: Q01DX001 (ip), vehicle: other) is 94 % of control.
